Data from US12551532B2, “Long-acting amylin receptor agonists and uses thereof” (Eli Lilly and Company, priority 2021, dated 2026).
Starred links: 1 amine or outer side, 2 acyl side, 3 side chain; linkers in the order of their positions; H or OH if unused. Positions of bridges follow the written chain, without caps; N, C: chain ends. Non-standard residues stand in square brackets, D forms with d. Residues, ends and D or L forms follow the SMILES beside them. Groups on a side chain read outwards from the residue. *: point of attachment. C20 diacid = O=C(O)CCCCCCCCCCCCCCCCCCC(=O)*; γGlu = O=C(O)[C@H](CCC(=O)[*:2])N[*:1]; αMeF = C[C@](N)(Cc1ccccc1)C(=O)O; NMeD = CN[C@@H](CC(=O)O)C(=O)O; NMeN = CN[C@@H](CC(N)=O)C(=O)O; αMeL = CC(C)C[C@](C)(N)C(=O)O; Orn = NCCC[C@H](N)C(=O)O; AEEA = NCCOCCOCC(=O)O; CH2 = C([*:1])[*:2]

Assays:
hAMY1R = biological target: T1, hAMY1R (Homo sapiens, UniProt O60894+P30988); assay: hAMY1R cAMP functional activity (HTRF); assay type: cell-based; settings: ±SE; UMUC3 cells overexpressing hAMY1R; relative EC50
T1 construct: expressed in transfected cells
T1 sequence (O60894 27-148 partner, one chain of several): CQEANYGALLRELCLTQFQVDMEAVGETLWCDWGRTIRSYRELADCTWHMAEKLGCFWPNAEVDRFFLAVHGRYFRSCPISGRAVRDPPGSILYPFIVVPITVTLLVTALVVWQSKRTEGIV
Protocol: (§1) The AMY1 and CT receptors are GPCRs that are functionally coupled to Gas proteins. […] In vitro activity of peptides is measured by the amount of cAMP formed in human AMY1R and CTR overexpressed cells.
Human AMY1R stable cell lines are generated by further transfecting human RAMP1-pCMVpuroPB (T14213) into UMUC3 hCTR clone cells. After selection, the mRNA levels human RAMP1 from different clones are measured to confirm the expression of human AMY1R.
(§2) hAMY1R cells are cultured in MEM 1× (Corning) supplemented with 10% FBS, 1% antibiotic/antimycotic solution, 1 mM sodium pyruvate, 1×MEM NEAA, 1× GlutaMAX-I, 200 μg/mL hygromycin B, and 0.4 μg/mL puromycin. The hCTR cells are cultured in the same medium lacking the puromycin. Cultured cells are grown to 70% confluency and then incubated overnight with fresh medium.
(§3) Peptides diluted in DMSO are added (200 nL/well) in a 1:3 dilution series using ECHO acoustic liquid handler (Beckman). Cultured cells are detached with TrypLE Express (Gibco), resuspended in assay buffer, and 10 μL containing 1200 cells/well (hCTR) or 1500 cells/well (hAMY1R) are dispensed into each well. The plates are incubated at room temperature for 1 hour.
(§4) The amount of intracellular cAMP is quantitated using HTRF technology (Homogeneous Time Resolved Fluorescence; Cisbio) as per vendor instructions. Briefly, 10 μL cAMP-d2 conjugate and 10 μL anti-cAMP-cryptate conjugate in lysis buffer are incubated with the treated cells at room temperature for 60 min. […] The raw data are converted to cAMP amount (pmol/well) using a cAMP standard curve generated for each experiment.

human CT receptors = biological target: T2, human CT receptors (Homo sapiens, UniProt P30988); assay: hCTR cAMP functional activity (HTRF); assay type: cell-based; settings: ±SE; UMUC3 cells overexpressing hCTR; relative EC50
T2 construct: expressed in transfected cells
T2 sequence (P30988 25-474): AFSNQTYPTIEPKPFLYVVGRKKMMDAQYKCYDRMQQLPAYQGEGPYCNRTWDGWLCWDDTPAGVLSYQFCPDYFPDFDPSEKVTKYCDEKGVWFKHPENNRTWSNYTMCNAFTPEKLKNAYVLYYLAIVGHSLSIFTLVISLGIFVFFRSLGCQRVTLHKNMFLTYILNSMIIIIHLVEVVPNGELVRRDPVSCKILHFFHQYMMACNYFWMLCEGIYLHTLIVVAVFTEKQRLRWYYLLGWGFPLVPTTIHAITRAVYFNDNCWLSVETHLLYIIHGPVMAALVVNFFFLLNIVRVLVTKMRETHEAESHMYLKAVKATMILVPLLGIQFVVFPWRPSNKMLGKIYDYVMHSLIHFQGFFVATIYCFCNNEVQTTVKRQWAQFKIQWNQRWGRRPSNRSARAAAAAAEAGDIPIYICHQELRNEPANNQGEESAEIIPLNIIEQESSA
Protocol: as §1
Human CT receptors are stably expressed in human urinary bladder cells (UM-UC-3, or UMUC3) under control of a pcDNA expression vector. […] After 20 days under selection, the mRNA levels from different clones are measured to confirm the expression of hCTR. To determine the function of over-expressed hCTR cells, the intracellular cAMP levels in response to salmon calcitonin are measured and compared to the expression of hCTR mRNA in each clone.
as §2, §3, §4

Row | Compound | EC50 (hAMY1R) [nM] | EC50 (human CT receptors) [nM]
1 | CC(C)C[C@H](NC(=O)[C@H](CCCN)NC(=O)CNC(=O)[C@@H](NC(=O)[C@H](C)NC(=O)[C@@H]1CSCSC[C@H](NC(=O)CC[C@H](N)C(=O)O)C(=O)N[C@@H](CC(N)=O)C(=O)N[C@@H]([C@@H](C)O)C(=O)N[C@@H](C)C(=O)N[C@@H]([C@@H](C)O)C(=O)N1)[C@@H](C)O)C(=O)N[C@@H](C)C(=O)N[C@@H](CCC(=O)O)C(=O)N[C@@](C)(Cc1ccccc1)C(=O)N[C@@H](CC(C)C)C(=O)N[C@H](C(=O)N[C@@H](CCCNC(=N)N)C(=O)N[C@@H](CO)C(=O)N[C@@H](CO)C(=O)N[C@@H](CC(N)=O)C(=O)N(C)[C@@H](CC(N)=O)C(=O)N[C@@H](Cc1ccccc1)C(=O)NCC(=O)N1CCC[C@H]1C(=O)N[C@@H](CCCCN)C(=O)N[C@@H](CC(C)C)C(=O)N1CCC[C@H]1C(=O)N1CCC[C@H]1C(=O)N[C@H](C(=O)N[C@@H](CCC(=O)O)C(=O)N[C@H](C(=O)NCC(=O)N[C@@H](CO)C(=O)N[C@@H](CC(N)=O)C(=O)N[C@H](C(=O)N[C@@H](Cc1ccc(O)cc1)C(N)=O)[C@@H](C)O)C(C)C)[C@@H](C)O)C(C)C [Compound I, γE-CNTATCATG-Orn-LAE-αMeF-LVRSSN-NMeN-FGPKLPPTEVGSNTY-NH2] (γGlu-CNTATCATG[Orn]LAE[αMeF]LVRSSN[NMeN]FGPKLPPTEVGSNTY-NH2; linker 1-6 via CH2) | 0.133 ± 0.012 | 18 ± 1.08
2 | CC(C)C[C@H](NC(=O)[C@H](CCCN)NC(=O)CNC(=O)[C@@H](NC(=O)[C@H](C)NC(=O)[C@@H]1CSCSC[C@H](NC(=O)CC[C@H](N)C(=O)O)C(=O)N[C@@H](CC(N)=O)C(=O)N[C@@H]([C@@H](C)O)C(=O)N[C@@H](C)C(=O)N[C@@H]([C@@H](C)O)C(=O)N1)[C@@H](C)O)C(=O)N[C@@H](C)C(=O)N[C@@H](CCC(=O)O)C(=O)N[C@@](C)(Cc1ccccc1)C(=O)N[C@@H](CC(C)C)C(=O)N[C@H](C(=O)N[C@@H](CCCNC(=N)N)C(=O)N[C@@H](CO)C(=O)N[C@@H](CO)C(=O)N[C@@H](CC(N)=O)C(=O)N(C)[C@@H](CC(=O)O)C(=O)N[C@@H](Cc1ccccc1)C(=O)NCC(=O)N1CCC[C@H]1C(=O)N[C@@H](CCCCN)C(=O)N[C@@H](CC(C)C)C(=O)N1CCC[C@H]1C(=O)N1CCC[C@H]1C(=O)N[C@H](C(=O)N[C@@H](CCC(=O)O)C(=O)N[C@H](C(=O)NCC(=O)N[C@@H](CO)C(=O)N[C@@H](CC(N)=O)C(=O)N[C@H](C(=O)N[C@@H](Cc1ccc(O)cc1)C(N)=O)[C@@H](C)O)C(C)C)[C@@H](C)O)C(C)C [Compound III, γE-CNTATCATG-Orn-LAE-αMeF-LVRSSN-NMeD-FGPKLPPTEVGSNTY-NH2] (γGlu-CNTATCATG[Orn]LAE[αMeF]LVRSSN[NMeD]FGPKLPPTEVGSNTY-NH2; linker 1-6 via CH2) | 0.156 ± 0.027 | 16.3 ± 3.03
3 | CC(C)C[C@H](NC(=O)[C@H](CCCCN)NC(=O)CNC(=O)[C@@H](NC(=O)[C@H](C)NC(=O)[C@@H]1CSCSC[C@H](NC(=O)CC[C@H](N)C(=O)O)C(=O)N[C@@H](CC(N)=O)C(=O)N[C@@H]([C@@H](C)O)C(=O)N[C@@H](C)C(=O)N[C@@H]([C@@H](C)O)C(=O)N1)[C@@H](C)O)C(=O)N[C@@H](C)C(=O)N[C@@H](CCC(=O)O)C(=O)N[C@@H](Cc1ccccc1)C(=O)N[C@@H](CC(C)C)C(=O)N[C@H](C(=O)N[C@@H](CCCNC(=N)N)C(=O)N[C@@H](CO)C(=O)N[C@@H](CO)C(=O)N[C@@H](CC(N)=O)C(=O)N[C@@H](CC(N)=O)C(=O)N[C@@H](Cc1ccccc1)C(=O)NCC(=O)N1CCC[C@H]1C(=O)N[C@@H](CCCCNC(=O)COCCOCCNC(=O)COCCOCCNC(=O)CC[C@H](NC(=O)CCCCCCCCCCCCCCCCCCC(=O)O)C(=O)O)C(=O)N[C@@H](CC(C)C)C(=O)N1CCC[C@H]1C(=O)N1CCC[C@H]1C(=O)N[C@H](C(=O)N[C@@H](CCC(=O)O)C(=O)N[C@H](C(=O)NCC(=O)N[C@@H](CO)C(=O)N[C@@H](CC(N)=O)C(=O)N[C@H](C(=O)N[C@@H](Cc1ccc(O)cc1)C(N)=O)[C@@H](C)O)C(C)C)[C@@H](C)O)C(C)C [Compound IX] (γGlu-CNTATCATGKLAEFLVRSSNNFGPK([AEEA-AEEA-γGlu-C20 diacid])LPPTEVGSNTY-NH2; linker 1-6 via CH2) | 0.132 ± 0.02 | 18.9 ± 3.83
4 | CC[C@H](C)[C@H](NC(=O)[C@@H]1CCCN1C(=O)CNC(=O)[C@H](Cc1ccccc1)NC(=O)[C@H](CC(=O)O)N(C)C(=O)[C@H](CC(N)=O)NC(=O)[C@H](CO)NC(=O)[C@H](CO)NC(=O)[C@H](CCCNC(=N)N)NC(=O)[C@@H](NC(=O)[C@H](CC(C)C)NC(=O)[C@](C)(Cc1ccccc1)NC(=O)[C@H](CCC(=O)O)NC(=O)[C@H](C)NC(=O)[C@H](CC(C)C)NC(=O)[C@H](CCCN)NC(=O)CNC(=O)[C@@H](NC(=O)[C@H](C)NC(=O)[C@@H]1CSCSC[C@H](NC(=O)[C@@H](N)CCCCN)C(=O)N[C@@H](CCC(=O)O)C(=O)N[C@@H]([C@@H](C)O)C(=O)N[C@@H](C)C(=O)N[C@@H]([C@@H](C)O)C(=O)N1)[C@@H](C)O)C(C)C)C(=O)N[C@@H](CC(C)C)C(=O)N1CCC[C@H]1C(=O)N1CCC[C@H]1C(=O)N[C@H](C(=O)N[C@@H](CCC(=O)O)C(=O)N[C@H](C(=O)NCC(=O)N[C@@H](CO)C(=O)N[C@@H](CC(N)=O)C(=O)N[C@H](C(=O)N[C@@H](Cc1ccc(O)cc1)C(N)=O)[C@@H](C)O)C(C)C)[C@@H](C)O [Compound V, KCETATCATG-Orn-LAE-αMeF-LVRSSN-NMeD-FGPILPPTEVGSNTY-NH2] (H-KCETATCATG[Orn]LAE[αMeF]LVRSSN[NMeD]FGPILPPTEVGSNTY-NH2; linker 2-7 via CH2) | 0.139 ± 0.017 | 17 ± 2.44
5 | CC[C@H](C)[C@H](NC(=O)[C@@H]1CCCN1C(=O)CNC(=O)[C@H](Cc1ccccc1)NC(=O)[C@H](CC(N)=O)NC(=O)[C@H](Cc1c[nH]cn1)NC(=O)[C@H](CO)NC(=O)[C@H](CO)NC(=O)[C@H](CCCNC(=N)N)NC(=O)[C@@H](NC(=O)[C@H](CC(C)C)NC(=O)[C@H](Cc1ccccc1)NC(=O)[C@H](CCC(=O)O)NC(=O)[C@H](C)NC(=O)[C@](C)(CC(C)C)NC(=O)[C@H](CCCN)NC(=O)CNC(=O)[C@@H](NC(=O)[C@H](C)NC(=O)[C@@H]1CSCSC[C@H](NC(=O)[C@@H](N)CCCCN)C(=O)N[C@@H](CCC(=O)O)C(=O)N[C@@H]([C@@H](C)O)C(=O)N[C@@H](C)C(=O)N[C@@H]([C@@H](C)O)C(=O)N1)[C@@H](C)O)C(C)C)C(=O)N[C@@H](CC(C)C)C(=O)N1CCC[C@H]1C(=O)N1CCC[C@H]1C(=O)N[C@H](C(=O)N[C@@H](CCC(=O)O)C(=O)N[C@H](C(=O)NCC(=O)N[C@@H](CO)C(=O)N[C@@H](CC(N)=O)C(=O)N[C@H](C(=O)N[C@@H](Cc1ccc(O)cc1)C(N)=O)[C@@H](C)O)C(C)C)[C@@H](C)O [Compound VII] (H-KCETATCATG[Orn][αMeL]AEFLVRSSHNFGPILPPTEVGSNTY-NH2; linker 2-7 via CH2) | 0.173 ± 0.034 | 11.9 ± 1.53
6 | CC(C)C[C@H](NC(=O)[C@H](CCCN)NC(=O)CNC(=O)[C@@H](NC(=O)[C@H](C)NC(=O)[C@@H]1CSCSC[C@H](NC(=O)CC[C@H](N)C(=O)O)C(=O)NCC(=O)N[C@@H]([C@@H](C)O)C(=O)N[C@@H](C)C(=O)N[C@@H]([C@@H](C)O)C(=O)N1)[C@@H](C)O)C(=O)N[C@@H](C)C(=O)N[C@@H](CCC(=O)O)C(=O)N[C@@H](Cc1ccccc1)C(=O)N[C@@H](CC(C)C)C(=O)N[C@H](C(=O)N[C@@H](CCCNC(=N)N)C(=O)N[C@@H](CO)C(=O)N[C@@H](CO)C(=O)N[C@@H](CC(N)=O)C(=O)N[C@@H](CC(N)=O)C(=O)N[C@@H](Cc1ccccc1)C(=O)NCC(=O)N1CCC[C@H]1C(=O)N[C@@H](CCCCNC(=O)CC[C@H](NC(=O)CC[C@H](NC(=O)CCCCCCCCCCCCCCCCCCC(=O)O)C(=O)O)C(=O)O)C(=O)N[C@@H](CC(C)C)C(=O)N1CCC[C@H]1C(=O)N1CCC[C@H]1C(=O)N[C@H](C(=O)N[C@@H](CCC(=O)O)C(=O)N[C@H](C(=O)NCC(=O)N[C@@H](CO)C(=O)N[C@@H](CC(N)=O)C(=O)N[C@H](C(=O)N[C@@H](Cc1ccc(O)cc1)C(N)=O)[C@@H](C)O)C(C)C)[C@@H](C)O)C(C)C [Compound XIII] (γGlu-CGTATCATG[Orn]LAEFLVRSSNNFGPK([γGlu-γGlu-C20 diacid])LPPTEVGSNTY-NH2; linker 1-6 via CH2) | 0.078 ± 0.014 | 9.49 ± 1.54
